Tested on: P. berghei sporozoites
Assay: Host cell-free transformation of sporozoites into EEFs (liver stages)
Format: cell-based
Conditions: Plasmodium berghei; lactacystin 10 μM in the culture medium
Method: Transformation medium and quantification of transformation: Sporozoites were suspended in DMEM medium (BioWhittaker) containing 2 mM of L-glutamine, 4.5 g/l glucose and supplemented with 10% Fetal Bovine Serum (FBS; HyClone) and 500 U/ml penicillin/streptomycin and 1.25 μl/ml fungizon (Sigma). For the generation of Plasmodium axenic liver stages, 5×10^4 sporozoites were inoculated per well of a 8 well chamber slide (Labtek) and maintained at 37° C. in 5% CO2. Initially, slides were coated with Matrigel (Becton Dickinson) at density of 100 μg/cm^2 to improve the development. Matrigel improved attachment of the parasites to the slide, but was not essential for transformation.
To determine transformation rates for various conditions and slides, the host cell-free cultures of GFP-expressing P. berghei sporozoites were examined by fluorescence microscopy at 400× magnification using an Eclipse TE 300 fluorescence microscope (Nikon, Inc.) using a green filter (excitation wavelength 495 nm/emission wavelength 519 nm). EEFs were scored as completely transformed only when they appeared completely spherical with no sporozoite remnants visible. Each count was performed in triplicate on three independent experiments done with sporozoites isolated from different batches of infected mosquitoes.

`CC(=O)N[C@@H](CSC(=O)[C@]1([C@@H](O)C(C)C)NC(=O)[C@H](C)[C@@H]1O)C(=O)O` [lactacystin] was tested, and the inhibition at 10 µM was about 70%.

Reference: patent US20050233435A1, “Plasmodium axenic liver stages as a noninfectious whole organism malaria vaccine” (priority 2003, published 2005)
